Converted amounts (≈) assume the structure as drawn.

Holding throughout (assay type): cell-based
Test [1] has as its system Bacillus subtilis ATCC 6633. The test is described as follows: MIC, two-fold dilution method, Bacillus subtilis ATCC 6633. The settings on record: 10^6 CFU per ml, 37° C., 18 to 20 hours; for MIC: ATCC6633, Muller Hinton Broth, read-out: Antibacterial Activity (MIC); for Antibacterial Activity (MIC): Muller Hinton Broth. The method, boiled down: (§1)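 Broth microdilution-type MIC: compound 2-fold serially diluted in Mueller Hinton Broth; inoculum 10^6 CFU/ml; 37° C., 18–20 h.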

Test [2] deals with Staphylococcus aureus ATCC 65389. The test is described as follows: MIC, two-fold dilution method, Staphylococcus aureus ATCC 65389. Conditions: 10^6 CFU per ml, 37° C., 18 to 20 hours; for MIC: ATCC65389, Muller Hinton Broth, read-out: Antibacterial Activity (MIC); for Antibacterial Activity (MIC): Muller Hinton Broth. Put shortly: as §1
The subject of test [3] is Staphylococcus epidermidis ATCC 12228. The test is described as follows: MIC, two-fold dilution method, Staphylococcus epidermidis ATCC 12228. Conditions: 10^6 CFU per ml, 37° C., 18 to 20 hours; for MIC: ATCC12228, Muller Hinton Broth, read-out: Antibacterial Activity (MIC); for Antibacterial Activity (MIC): Muller Hinton Broth. Put shortly:
as §1

Test [4] relates to Streptococcus faecalis ATCC 10541. Nature of the test: MIC, two-fold dilution method, Streptococcus faecalis ATCC 10541. Conditions: 10^6 CFU per ml, 37° C., 18 to 20 hours; for MIC: Enterococcus faecalis, ATCC10541, Muller Hinton Broth, read-out: Antibacterial Activity (MIC); for Antibacterial Activity (MIC): Muller Hinton Broth. The method, boiled down:
as §1

Test [5] relates to Pseudomonas aeurginosa NCTC 10490. Nature of the test: MIC, two-fold dilution method, Pseudomonas aeurginosa NCTC 10490. Conditions: 10^6 CFU per ml, 37° C., 18 to 20 hours; for MIC: NCTC10490, Muller Hinton Broth, read-out: Antibacterial Activity (MIC); for Antibacterial Activity (MIC): Muller Hinton Broth. Put shortly:
as §1

For test [6], the system named is Esherichia coli ATCC 25922. The test is described as follows: MIC, two-fold dilution method, Esherichia coli ATCC 25922. Conditions: Muller Hinton Broth, 10^6 CFU per ml, 37° C., 18 to 20 hours; for MIC: read-out: Antibacterial Activity (MIC). The method, boiled down:
as §1

The test system of test [7] is Klebsiella pneumoniae ATCC 10031. Nature of the test: MIC, two-fold dilution method, Klebsiella pneumoniae ATCC 10031. Conditions: 10^6 CFU per ml, 37° C., 18 to 20 hours; for MIC: ATCC10031, Muller Hinton Broth, read-out: Antibacterial Activity (MIC); for Antibacterial Activity (MIC): Muller Hinton Broth. Put shortly:
as §1

One may read the MIC as the smallest concentration in the dilution series that meets the test's criterion for growth inhibition. In the case of `C=CCO/N=C(\C(=O)NC1C(=O)N2C(C(=O)[O-])=C(CSc3cc[n+](CC=C)c4cc(N5CCN(C)CC5)c(F)cc34)CSC12)c1csc(N)n1` (stereo not shown) [Compound I-34, 7-[(Z)-2-(2-aminothiazol-4-yl)-2-(allyloxyimino)acetamido]-3-[1-allyl-6-fluoro-7-(N-methylpiperazinyl)quinolinium-4-yl]thiomethyl-3-cephem-4-carboxylate], the minimal inhibitory concentration (MIC) in test [1] is 0.78 µg/mL (≈ 1.06 µM); in test [2], 1.56 µg/mL (≈ 2.11 µM); in test [3] it was 1.56 µg/mL (≈ 2.11 µM); in test [4], 0.78 µg/mL (≈ 1.06 µM); in test [5] it was 6.25 µg/mL (≈ 8.46 µM); in test [6], 3.13 µg/mL (≈ 4.24 µM). In test [7], the MIC turned out to be 1.56 µg/mL (≈ 2.11 µM).

Turning to `CCN1CCN(c2cc3c(cc2F)c(SCC2=C(C(=O)[O-])N4C(=O)C(NC(=O)/C(=N\OC)c5csc(N)n5)C4SC2)cc[n+]3C)CC1` (stereo not shown) [Compound I-3, 7-[(Z)-2-(2-aminothiazol-4-yl)-2-(methoxyimino)acetamido]-3-[1-methyl-6-fluoro-7-(1-ethylpiperazinyl)quinolinium-4-yl]thiomethyl-3-cephem-4-carboxylate], the minimal inhibitory concentration (MIC) in test [1] amounted to 0.2 µg/mL (≈ 0.285 µM); in test [2], 0.05 µg/mL (≈ 0.0713 µM); in test [3], 0.1 µg/mL (≈ 0.143 µM); in test [4], 0.025 µg/mL (≈ 0.0357 µM); in test [5], 0.78 µg/mL (≈ 1.11 µM); in test [6] it was 0.78 µg/mL (≈ 1.11 µM). Further, the minimal inhibitory concentration (MIC) in test [7] is 0.1 µg/mL (≈ 0.143 µM).

In the case of `C=CCO/N=C(\C(=O)NC1C(=O)N2C(C(=O)[O-])=C(CSc3cc[n+](C4CC4)c4cc(N5CCN(C)CC5)c(F)cc34)CSC12)c1csc(N)n1` (stereo not shown) [Compound I-26, 7-[(Z)-2-(2-aminothiazol-4-yl)-2-(allyloxyimino)acetamido]-3-[1-cyclopropyl-6-fluoro-7-(N-methylpiperazinyl)quinolinium-4-yl]thiomethyl-3-cephem-4-carboxylate], the MIC in test [1] is 0.1 µg/mL (≈ 0.135 µM); in test [2], 0.39 µg/mL (≈ 0.528 µM); in test [3], 1.56 µg/mL (≈ 2.11 µM); in test [4], 0.2 µg/mL (≈ 0.271 µM); in test [5], 0.39 µg/mL (≈ 0.528 µM); in test [6], 6.25 µg/mL (≈ 8.46 µM). In addition, the MIC in test [7] came to 0.2 µg/mL (≈ 0.271 µM).

Take `C#CCO/N=C(\C(=O)NC1C(=O)N2C(C(=O)[O-])=C(CSc3cc[n+](CC)c4cc(N5CCNCC5)c(F)cc34)CS[C@H]12)c1csc(N)n1` (stereo partly shown) [Compound I-45, 7-[(Z)-2-(2-aminothiazol-4-yl)-2-(propargyloxyimino)acetamido]-3-(1-ethyl-6-fluoro-7-piperazinylquinolinium-4-yl)thiomethyl-3-cephem-4-carboxylate]: the minimal inhibitory concentration (MIC) turned out to be 0.1 µg/mL (≈ 0.141 µM) in test [1]; 0.2 µg/mL (≈ 0.281 µM) in test [2]; 0.78 µg/mL (≈ 1.1 µM) in test [3]; 0.39 µg/mL (≈ 0.549 µM) in test [4]; 1.56 µg/mL (≈ 2.19 µM) in test [5]; 3.13 µg/mL (≈ 4.4 µM) in test [6]. In test [7], the MIC was 0.78 µg/mL (≈ 1.1 µM).

With `C=CC[n+]1ccc(SCC2=C(C(=O)[O-])N3C(=O)C(NC(=O)/C(=N\OC)c4csc(N)n4)C3SC2)c2cc(F)c(N3CCN(C)CC3)cc21` (stereo not shown) [Compound I-14, 7-[(Z)-2-(2-aminothiazol-4-yl)-2-(methoxyimino)acetamido]-3-[1-allyl-6-fluoro-7-(N-methylpiperazinyl)quinolinium-4-yl]thiomethyl-3-cephem-4-carboxylate], the MIC is 0.1 µg/mL (≈ 0.14 µM) in test [1]; 0.78 µg/mL (≈ 1.09 µM) in test [2]; 0.39 µg/mL (≈ 0.547 µM) in test [3]; 0.2 µg/mL (≈ 0.281 µM) in test [4]; 3.13 µg/mL (≈ 4.39 µM) in test [5]; 3.13 µg/mL (≈ 4.39 µM) in test [6]. Also, in test [7], the MIC was determined as 1.56 µg/mL (≈ 2.19 µM).

`CCN1CCN(c2cc3c(cc2F)c(SCC2=C(C(=O)[O-])N4C(=O)C(NC(=O)/C(=N\OC)c5csc(N)n5)C4SC2)cc[n+]3C2CC2)CC1` (stereo not shown) [Compound I-7, 7-[(Z)-2-(2-aminothiazol-4-yl)-2-(methoxyimino)acetamido]-3-3-[1-cyclopropyl-6-fluoro-7-(1-ethylpiperazinyl)quinolinium-4-yl]-thiomethyl-3-cephem-4-carboxylate]: the minimal inhibitory concentration (MIC) in test [1] came to 0.2 µg/mL (≈ 0.275 µM); in test [2] it was 0.39 µg/mL (≈ 0.537 µM); in test [3] it was 0.2 µg/mL (≈ 0.275 µM); in test [4] it was 0.05 µg/mL (≈ 0.0688 µM); in test [5] it was 0.39 µg/mL (≈ 0.537 µM); in test [6], 0.78 µg/mL (≈ 1.07 µM). The minimal inhibitory concentration (MIC) in test [7] stood at 0.05 µg/mL (≈ 0.0688 µM).

Turning to `CO/N=C(\C(=O)NC1C(=O)N2C(C(=O)[O-])=C(CSc3cc[n+](C4CC4)c4cc(N5CCNCC5)c(F)cc34)CS[C@H]12)c1csc(N)n1` (stereo partly shown) [Compound I-5, 7-[(Z)-2-(2-aminothiazol-4-yl)-2-(methoxyimino)acetamido]-3-(1-cyclopropyl-6-fluoro-7-piperazinylquinolinium-4-yl)thiomethyl-3-cephem-4-carboxylate], the MIC in test [1] came to 0.39 µg/mL (≈ 0.558 µM); in test [2], 1.56 µg/mL (≈ 2.23 µM); in test [3], 0.78 µg/mL (≈ 1.12 µM); in test [4] it was 0.39 µg/mL (≈ 0.558 µM); in test [5] it was 3.13 µg/mL (≈ 4.48 µM); in test [6] it was 12.5 µg/mL (≈ 17.9 µM). In addition, in test [7], the minimal inhibitory concentration (MIC) is 0.1 µg/mL (≈ 0.143 µM).

Take `C#CCO/N=C(\C(=O)NC1C(=O)N2C(C(=O)[O-])=C(CSc3cc[n+](CC=C)c4cc(N5CCNCC5)c(F)cc34)CS[C@H]12)c1csc(N)n1` (stereo partly shown) [Compound I-49, 7-[(Z)-2-(2-aminothiazol-4-yl)-2-(propargyloxyimino)acetamido]-3-(1-allyl-6-fluoro-7-piperazinylquinolinium-4-yl)thiomethyl-3-cephem-4-carboxylate]: the minimal inhibitory concentration (MIC) in test [1] turned out to be 0.39 µg/mL (≈ 0.54 µM); in test [2], 1.56 µg/mL (≈ 2.16 µM); in test [3], 1.56 µg/mL (≈ 2.16 µM); in test [4] it was 0.78 µg/mL (≈ 1.08 µM); in test [5], 1.56 µg/mL (≈ 2.16 µM); in test [6], 1.56 µg/mL (≈ 2.16 µM). Also, in test [7], the MIC amounted to 1.56 µg/mL (≈ 2.16 µM).

Turning to `CCN1CCN(c2cc3c(cc2F)c(SCC2=C(C(=O)[O-])N4C(=O)C(NC(=O)/C(=N\OC)c5csc(N)n5)C4SC2)cc[n+]3CC)CC1` (stereo not shown) [Compound I-11, 7-[(Z)-2-(2-aminothiazol-4-yl)-2-(methoxyimino)acetamido]-3-[1-ethyl-6-fluoro-7-(1-ethylpiperazinyl)quinolinium-4-yl]thiomethyl-3-cephem-4-carboxylat], the minimal inhibitory concentration (MIC) in test [1] came out at 0.1 µg/mL (≈ 0.14 µM); in test [2] it was 0.1 µg/mL (≈ 0.14 µM); in test [3], 0.2 µg/mL (≈ 0.28 µM); in test [4], 0.05 µg/mL (≈ 0.0699 µM); in test [5], 1.56 µg/mL (≈ 2.18 µM); in test [6] it was 1.56 µg/mL (≈ 2.18 µM). Also, in test [7], the MIC worked out at 0.39 µg/mL (≈ 0.546 µM).

With `CC[n+]1ccc(SCC2=C(C(=O)[O-])N3C(=O)C(NC(=O)/C(=N\OC)c4csc(N)n4)[C@H]3SC2)c2cc(F)c(N3CCNCC3C)cc21` (stereo partly shown) [Compound I-12, 7-[(Z)-2-(2-aminothiazol-4-yl)-2-(methoxyimino)acetamido]-3-[1-ethyl-6-fluoro-7-(2-methylpiperazinyl)quinolinium-4-yl]thiomethyl-3-cephem-4-carboxylate], the “Antibacterial Activity (MIC)” value in test [1] was 0.1 µg/mL; in test [2] it was 0.1 µg/mL; in test [3], 0.2 µg/mL; in test [4], 0.025 µg/mL; in test [5] it was 1.56 µg/mL; in test [6], 1.56 µg/mL. Besides, the “Antibacterial Activity (MIC)” value in test [7] was 0.39 µg/mL.

Regarding `C=CCO/N=C(\C(=O)NC1C(=O)N2C(C(=O)[O-])=C(CSc3cc[n+](C)c4cc(N5CCN(C)CC5)c(F)cc34)CSC12)c1csc(N)n1` (stereo not shown) [Compound I-22, 7-[(Z)-2-(2-aminothiazol-4-yl)-2-(allyloxyimino)acetamido]-3-[1-methyl-6-fluoro-7-(N-methylpiperazinyl)quinolinium-4-yl]thiomethyl-3-cephem-4-carboxylate], the MIC worked out at 0.39 µg/mL (≈ 0.547 µM) in test [1]; 0.2 µg/mL (≈ 0.281 µM) in test [2]; 0.1 µg/mL (≈ 0.14 µM) in test [3]; 0.013 µg/mL (≈ 0.0182 µM) in test [4]; 3.13 µg/mL (≈ 4.39 µM) in test [5]; 6.25 µg/mL (≈ 8.77 µM) in test [6]. For the same molecule, the MIC in test [7] came out at 0.39 µg/mL (≈ 0.547 µM).

Turning to `CO/N=C(\C(=O)NC1C(=O)N2C(C(=O)[O-])=C(CSc3cc[n+](C4CC4)c4cc(N5CCNCC5C)c(F)cc34)CS[C@H]12)c1csc(N)n1` (stereo partly shown) [Compound I-8, 7-[(Z)-2-(2-aminothiazol-4-yl)-2-(methoxyimino)acetamido]-3-[1-cyclopropyl-6-fluoro-7-(2-methylpiperazinyl)quinolinium-4-yl]thiomethyl-3-cephem-4-carboxylate], the “Antibacterial Activity (MIC)” value in test [1] worked out at 0.2 µg/mL; in test [2], 0.39 µg/mL; in test [3], 0.2 µg/mL; in test [4], 0.2 µg/mL; in test [5], 0.39 µg/mL; in test [6], 0.78 µg/mL. The “Antibacterial Activity (MIC)” value in test [7] came out at 0.05 µg/mL.

As for `C#CCO/N=C(\C(=O)NC1C(=O)N2C(C(=O)[O-])=C(CSc3cc[n+](CC)c4cc(N5CCN(CC)CC5)c(F)cc34)CSC12)c1csc(N)n1` (stereo not shown) [Compound I-47, 7-[(Z)-2-(2-aminothiazol-4-yl)-2-(propargyloxyimino)acetamido]-3-[1-ethyl-6-fluoro-7-(1-ethylpiperazinyl)quinolinium-4-yl]thiomethyl-3-cephem-4-carboxylate], the MIC in test [1] worked out at 0.2 µg/mL (≈ 0.271 µM); in test [2], 0.2 µg/mL (≈ 0.271 µM); in test [3] it was 0.78 µg/mL (≈ 1.06 µM); in test [4] it was 0.1 µg/mL (≈ 0.135 µM); in test [5], 1.56 µg/mL (≈ 2.11 µM); in test [6], 6.25 µg/mL (≈ 8.46 µM). The MIC in test [7] is 1.56 µg/mL (≈ 2.11 µM).

(Values after patent US5663331A, “Cephalosporin compounds” (Il-Dong Pharm. Co., Ltd., priority 1992, dated 1997).)
